Test results published in the METLIN SMRT retention time set (Domingo-Almenara et al. 2019).

Experiment: gradient 5% acetonitrile 3 min, to 50% in 2 min, to 85% in 15 min, held 3 min, 100 µL/min
Details: column: Zorbax Extend-C18 2.1 x 50 mm; eluents: water / acetonitrile, 0.1% formic acid
In short: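 Over 3 months, pure standards in mixtures of ~100 molecules were run by HPLC coupled to a quadrupole time-of-flight mass spectrometer in positive and negative ionization mode. The column was a Zorbax Extend-C18 (2.1 × 50 mm, 1.8 μm) at 100 μL/min, eluted with water and acetonitrile each holding 0.1% formic acid, with 40 μL dead and 900 μL dwell volumes. Retention time was determined from adduct peaks chosen by software and checked manually.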

Structure (SMILES) | RP-LC retention time
COc1cc(Nc2nc(C(=O)N3CCOCC3)cc3occc23)cc(OC)c1OC | 710 s
Cc1cc(-c2nnc(SCC(N)=O)o2)c(C)o1 | 625 s
Cc1cc2c(c(=O)n(-c3ccccc3)c(=O)n2CC(=O)Nc2cccc(C(C)C)c2)n1C | 975 s
COc1cc(NC(=O)N2CCN(c3cc(C)nc(N4CCCC4)n3)CC2)cc(OC)c1OC | 634 s
CCOC(=O)c1ccc(NC(=O)C23CCC(C)(C(=O)C2)C3(C)C)cc1 (configuration not stated) | 897 s
CCSc1nc2ncc(-c3ccnc(N4CCN(C)CC4)n3)c(C)n2n1 | 808 s
CCc1nc(-c2cc(S(=O)(=O)N3CCC(C(=O)N(CC)CC)CC3)c(C)s2)no1 | 960 s
Cc1ccccc1Cn1c(CN2CCC(C(=O)NCCc3ccco3)CC2)cc2ccccc21 | 805 s
Cc1cc(C)c2c(N3CCSCC3)nc(C(=O)NCC3CCCO3)nc2n1 (configuration not stated) | 624 s
COc1cccc(-c2noc(N3CCCC3)n2)c1 | 898 s
CCN(CC)c1ncnc2c(-c3ccccc3)cn(CC(=O)NC(C)C)c12 | 686 s
CCc1nnc(-c2ccc3ccn(CC(=O)NCc4ccc(N(C)C)cc4)c3c2)o1 | 640 s
CCC(C)NC(=O)N1CC(Oc2ccc(-c3nc(C)no3)cc2)C1 (configuration not stated) | 873 s
Cc1nn(C)cc1CN(C)C(=O)NC1CCCCC1 | 611 s
Cc1cc(C)n(-c2cc(N3CCCC(C(=O)Nc4nccs4)C3)ncn2)n1 (configuration not stated) | 749 s
O=C(Nc1cccc(F)c1)C(=O)c1ccc[nH]1 | 846 s
CCN1CCN(C(=O)C2CCCN(S(=O)(=O)c3ccc4c(ccn4CC)c3)C2)CC1 (configuration not stated) | 660 s
O=C(CCc1conc1-c1ccccc1)N1CCC(N2CCCCC2)CC1 | 616 s
O=c1c2cc3c(cc2nc(SCc2nc(-c4ccc(F)cc4)no2)n1Cc1ccncc1)OCO3 | 799 s

The remaining lines, values ahead:

RP-LC retention time | Structure (SMILES)
832 s | Cc1ccc(NC(=O)C2CCN(C(=O)c3ncn4c3COC(c3ccc(F)cc3)C4)CC2)c(C)c1 (configuration not stated)
1020 s | O=C(Nc1ccccc1)c1cccn1Cc1noc(-c2ccccc2)n1
876 s | CCOC(=O)c1cccc(NC(=O)Cn2c(=O)c(CCC(=O)NC3CCCC3)nc3ccccc32)c1
792 s | O=C(c1nnn2c1COC(c1ccccc1)C2)N1CCN(C(=O)c2cccc3[nH]ccc23)CC1 (configuration not stated)
681 s | O=C(Cc1nnc(-c2cnccn2)o1)Nc1ccccc1Cl
856 s | O=S(=O)(Nc1ccccc1F)c1ccc(-c2nnc(C3CCC3)o2)o1
945 s | Cc1ccc(Cl)cc1NC(=O)NC(C)C(=O)N1CCc2ccccc21 (configuration not stated)
658 s | Cc1ccc(Cl)cc1NC(=O)CN1CCN(c2ccc(F)cc2)CC1
771 s | COCCN1C(=O)CCc2cc(NS(=O)(=O)c3ccccc3Cl)ccc21
784 s | COCCc1noc(C2CN(S(=O)(=O)c3cccc(F)c3)C2)n1
1120 s | O=S(=O)(Nc1ccc(-c2noc(COc3ccc(Cl)cc3)n2)cc1)c1cccs1
854 s | CCc1ccc(NS(=O)(=O)c2cc(-c3ccn[nH]3)sc2C)cc1
539 s | O=C(CN1CCC(c2nnc(-c3ccc(F)cc3)o2)CC1)Nc1cccnc1
872 s | COc1ccc(OC)c(CNC(=O)C2=C3CCCN3c3ccc(F)cc3S2(=O)=O)c1
950 s | COc1ccc(-c2nnc(-c3cc(S(=O)(=O)N4CCOCC4)ccc3Cl)o2)cc1
780 s | O=C(CCNc1c(-c2cccc(F)c2)nc2cnccn12)NCc1ccccc1Cl
764 s | O=C(c1nnc(-c2ccc(S(=O)(=O)N3CCCC3)cc2)o1)N1CCCC1
800 s | O=C(c1cccc(F)c1)N1CCC2(CC1)N=C(c1ccc(Cl)cc1)NO2
